Target: BTK (Homo sapiens (Human), UniProt Q06187)
Assay: Z'-LYTE kinase inhibition assay against BTK
Type: biochemical
Conditions: for inhibition at 0.1 µM: compound at 100 nM, ATP concentration at Km; for IC50: series of concentrations, GraphPad Prism 5
Procedure: Inhibitory activities of compounds against BTK, EGFR T790M, EGFR L858R, and EGFR L858R/T790M were measured using Z′-LYTE® Method from Life Technologies as briefly described in the following.
Test Compounds are screened in 1% DMSO (final) in the well. For 10 point titrations, 3-fold serial dilutions are conducted from the starting concentration. All ATP Solutions are diluted to a 4× working concentration in Kinase Buffer (50 mM HEPES pH 7.5, 0.01% BRIJ-35, 10 mM MgCl2, 1 mM EGTA). Peptide/Kinase Mixtures are diluted to a 2× working concentration in the appropriate Kinase Buffers as described below. • (i) Peptide/Kinase Mixtures for measurement of EGFR (ErbB1) L858R: • The 2×EGFR (ErbB1) L858R/Tyr 04 mixture is prepared in 50 mM HEPES pH 7.5, 0.01% BRIJ-35, 10 mM MgCl2, 4 mM MnCl2. 1 mM EGTA, 2 mM DTT. The final 10 μL Kinase Reaction consists of 0.2-1.68 ng EGFR (ErbB1) L858R and 2 μM Tyr 04 in 50 mM HEPES pH 7.5, 0.01% BRIJ-35, 10 mM MgCl2, 2 mM MnCl2, 1 mM EGTA, 1 mM DTT. After the 1 hour Kinase Reaction incubation, 5 μL of a 1:64 dilution of Development Reagent B is added. • (ii) Peptide/Kinase Mixtures for measurement of EGFR (ErbB1) T790M: The 2×EGFR (ErbB1) T790M/Tyr 04 mixture is prepared in 50 mM HEPES pH 6.5, 0.01% BRIJ-35, 10 mM MgCl2, 1 mM EGTA, 0.02% NaN3. The final 10 μL Kinase Reaction consists of 3.9-30.2 ng EGFR (ErbB1) T790M and 2 μM Tyr 04 in 50 mM HEPES pH 7.0, 0.01% BRIJ-35, 10 mM MgCl2, 1 mM EGTA, 0.01% NaN3. After the 1 hour Kinase Reaction incubation, 5 μL of a 1:64 dilution of Development Reagent B is added. • (iii) Peptide/Kinase Mixtures for measurement of EGFR (ErbB1) L858R/T790M: The 2×EGFR (ErbB1) T790M L858R/Tyr 04 mixture is prepared in 50 mM HEPES pH 6.5, 0.01% BRIJ-35, 10 mM MgCl2, 1 mM EGTA, 0.02% NaN3. The final 10 μL Kinase Reaction consists of 0.38-4.22 ng EGFR (ErbB1) T790M L858R and 2 μM Tyr 04 in 50 mM HEPES pH 7.0, 0.01% BRIJ-35, 10 mM MgCl2, 1 mM EGTA, 0.01% NaN3. After the 1 hour Kinase Reaction incubation, 5 μL of a 1:64 dilution of Development Reagent B is added. • (iv) Peptide/Kinase Mixtures for measurement of BTK: The 2×BTK/Tyr 01 mixture is prepared in 50 mM HEPES pH 7.5, 0.010/BRIJ-35, 10 mM MgCl2, 1 mM EGTA. The final 10 μL Kinase Reaction consists of 1.04-10.4 ng BTK and 2 μM Tyr 01 in 50 mM HEPES pH 7.5, 0.01% BRIJ-35, 10 mM MgCl2, 1 mM EGTA. After the 1 hour Kinase Reaction incubation, 5 μL of a 1:256 dilution of Development Reagent B is added.
Reaction starts by 30-second shaking of mixture consisting of 2.5 μL 4× test compound, 5 μL 2× kinase reaction mixture and 2.5 μL 4×ATP Solution on Bar-coded Corning, low volume NBS, black 384-well plate (Corning Cat. #3676). Then the mixture is incubated for 60-minute at room temperature for the kinase reaction, followed by addition of 5 μL of a 1:1024 dilution of development reagent A and 30-second plate shake. The mixture is then incubated for another 60-minute at room temperature for development reaction. Finally fluorescence is read by plate reader.
The Z′-LYTE assay was carried out with ATP concentration at Km. The scale utilized in Tables 2-6 is as follows: ++ more than 50% inhibition and + less than 50% inhibition.
To determine IC50 of a compound against a kinase, a series of concentrations of the compound were tested for the inhibition. IC50 was calculated by plotting the concentration of compound vs the percentage of inhibition in treated wells using GraphPad Prism 5. […] The scale utilized in Table 7 is as follows: ++ less than 100 nM and + greater than 100 nM.

Sequence of BTK (Q06187 whole entry): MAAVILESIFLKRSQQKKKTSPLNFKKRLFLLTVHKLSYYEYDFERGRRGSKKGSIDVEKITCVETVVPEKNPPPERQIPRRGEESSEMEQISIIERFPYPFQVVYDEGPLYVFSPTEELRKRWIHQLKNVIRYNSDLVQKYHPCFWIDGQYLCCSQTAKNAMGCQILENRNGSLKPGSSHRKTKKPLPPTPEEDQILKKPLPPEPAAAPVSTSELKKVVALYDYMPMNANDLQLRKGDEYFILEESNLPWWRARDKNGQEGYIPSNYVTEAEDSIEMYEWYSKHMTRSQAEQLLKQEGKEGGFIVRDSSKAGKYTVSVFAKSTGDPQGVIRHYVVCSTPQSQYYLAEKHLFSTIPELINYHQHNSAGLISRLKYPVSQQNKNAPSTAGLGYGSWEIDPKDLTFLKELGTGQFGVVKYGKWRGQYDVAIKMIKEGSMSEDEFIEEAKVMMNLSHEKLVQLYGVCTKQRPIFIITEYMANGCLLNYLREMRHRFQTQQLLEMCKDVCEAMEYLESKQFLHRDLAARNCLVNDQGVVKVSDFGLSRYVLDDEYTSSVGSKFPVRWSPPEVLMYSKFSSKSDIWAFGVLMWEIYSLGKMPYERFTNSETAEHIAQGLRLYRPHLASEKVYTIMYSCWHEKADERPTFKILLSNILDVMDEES

Row | inhibition at 0.1 µM [%] | IC50 [nM] | Structure (SMILES)
1 | > 50 |  | C=CC(=O)Nc1cccc(-c2cc(-c3ccc(C(=O)N4CCOCC4)cc3)cc3cncnc23)c1 [C101, N-(3-(6-(4-(morpholine-4-carbonyl)phenyl)quinazolin-8-yl)phenyl)acrylamide]
2 | > 50 |  | C=CC(=O)Nc1cccc(-c2cc(-c3cccc(Nc4ccccc4)c3)cc3cncnc23)c1 [C017, N-(3-(6-(3-(phenylamino)phenyl)quinazolin-8-yl)phenyl)acrylamide]
3 |  | < 100 | C=CC(=O)N1CCCC(c2nc(-c3ccc(Oc4ccccn4)cc3)n3c(N)nccc23)C1 (stereo not drawn) [C243, 1-(3-(5-amino-3-(4-(pyridin-2-yloxy)phenyl)imidazo[1,5-c]pyrimidin-1-yl)piperidin-1-yl)prop-2-en-1-one]
4 | > 50 | < 100 | C=CC(=O)Nc1cccc(-c2cc(-c3ccc(Oc4ccccc4)cc3)cc3cncnc23)c1 [C023, N-(3-(6-(4-phenoxyphenyl)quinazolin-8-yl)phenyl)acrylamide]
5 | > 50 |  | C=CC(=O)N1CCC(c2nc(-c3ccc(Oc4cc(C(F)(F)F)ccn4)c(OC)c3)n3c(N)nccc23)C1 (stereo not drawn) [C221, 1-(3-(5-amino-3-(3-methoxy-4-((4-(trifluoro-methyl)pyridin-2-yl)oxy)phenyl)imidazo[1,5-c]pyrimidin-1-yl)pyrrolidin-1-yl)prop-2-en-1-one]
6 | < 50 |  | C=CC(=O)N1CCC(c2cc(-c3ccc(C(=O)Nc4ccccn4)cc3)cc3cncnc23)C1 (stereo not drawn) [C079, 4-(8-(1-acryloylpyrrolidin-3-yl)quinazolin-6-yl)-N-(pyridin-2-yl)benzamide]
7 | > 50 | < 100 | C=CC(=O)Nc1cccc(-c2cc(-c3ccc(C(=O)Nc4cc(C5CC5)ccn4)cc3F)cc3cncnc23)c1 [C153, 4-(8-(3-acrylamidophenyl)quinazolin-6-yl)-N-(4-cyclopropylpyridin-2-yl)-3-fluorobenzamide]
8 | < 50 | > 100 | C=CC(=O)Nc1cccc(-c2cc(-c3ccc(Oc4cc(C(F)(F)F)ccn4)cc3F)c(N)c3cncnc23)c1 [C187, N-(3-(5-amino-6-(2-fluoro-4-((4-(trifluoromethyl)pyridin-2-yl)oxy)phenyl)quinazolin-8-yl)phenyl)acrylamide]
9 |  | < 100 | CC#CC(=O)N1CCC(c2nc(-c3ccc(Oc4ncccc4C#N)cc3)n3c(N)nccc23)C1 (stereo not drawn) [C229, 2-(4-(5-amino-1-(1-(but-2-ynoyl)pyrrolidin-3-yl)imidazo[1,5-c]pyrimidin-3-yl)phenoxy)nicotinonitrile]
10 | > 50 | < 100 | C=CC(=O)N1CCC(c2nc(-c3ccc(Oc4ccccn4)c(F)c3)n3c(N)nccc23)C1 (stereo not drawn) [C208, 1-(3-(5-amino-3-(3-fluoro-4-(pyridin-2-yloxy)phenyl)imidazo[1,5-c]pyrimidin-1-yl)pyrrolidin-1-yl)prop-2-en-1-one]
11 |  | < 100 | C=CC(=O)N1CCCC(c2nc(-c3ccc(Oc4ncccc4C#N)c(F)c3)n3c(N)nccc23)C1 (stereo not drawn) [C234, 2-(4-(1-(1-acryloylpiperidin-3-yl)-5-amino-imidazo[1,5-c]pyrimidin-3-yl)-2-fluorophenoxy)nicotinonitrile]
12 | < 50 |  | C=CC(=O)N1CCC(c2cc(-c3ccc(Oc4ccccn4)cc3OC)cc3cncnc23)C1 (stereo not drawn) [C133, 1-(3-(6-(2-methoxy-4-(pyridin-2-yloxy)phenyl)quinazolin-8-yl)pyrrolidin-1-yl)prop-2-en-1-one]
13 | < 50 |  | C=CC(=O)Nc1cccc(-c2cc(-c3ccc(Oc4cc(C(F)(F)F)ccn4)cc3)cc3cnc(N)nc23)c1 [C098, N-(3-(2-amino-6-(4-((4-(trifluoromethyl)pyridin-2-yl)oxy)phenyl)quinazolin-8-yl)phenyl)acrylamide]
14 | > 50 | < 100 | C=CC(=O)Nc1cccc(-c2cc(-c3ccc(Oc4cccc(F)c4)nc3)cc3cncnc23)c1 [C086, N-(3-(6-(6-(3-fluorophenoxy)pyridin-3-yl)quinazolin-8-yl)phenyl)acrylamide]
15 |  | < 100 | CC#CC(=O)N1CCC(c2nc(-c3ccc(Oc4ncccc4F)cc3)n3c(N)nccc23)C1 (stereo not drawn) [C228, 1-(3-(5-amino-3-(4-((3-fluoropyridin-2-yl)oxy)phenyl)imidazo[1,5-c]pyrimidin-1-yl)pyrrolidin-1-yl)but-2-yn-1-one]
16 | < 50 |  | C=CC(=O)N1CCC(c2cc(-c3ccc(C(=O)Nc4cc(C#N)ccn4)c(F)c3)n3cnccc23)C1 (stereo not drawn) [C172, 4-(5-(1-acryloylpyrrolidin-3-yl)pyrrolo[1,2-c]pyrimidin-7-yl)-N-(4-cyanopyridin-2-yl)-2-fluorobenzamide]
17 | < 50 |  | C=CC(=O)N1CCC(n2c(-c3ccccc3Cl)nc3cncnc32)C1 (stereo not drawn) [C033, 1-(3-(8-(2-chlorophenyl)-9H-purin-9-yl)pyrrolidin-1-yl)prop-2-en-1-one]
18 | > 50 | < 100 | C=CC(=O)N1CCC(c2cc(-c3ccc(Oc4ccccc4)cc3)cc3cnc(N)nc23)C1 (stereo not drawn) [C078, 1-(3-(2-amino-6-(4-phenoxyphenyl)quinazolin-8-yl)pyrrolidin-1-yl)prop-2-en-1-one]
19 | > 50 |  | CC#CC(=O)N1CCC(c2nc(-c3ccc(Oc4ccccn4)c(F)c3)n3c(N)nccc23)C1 (stereo not drawn) [C209, 1-(3-(5-amino-3-(3-fluoro-4-(pyridin-2-yloxy)phenyl)imidazo[1,5-c]pyrimidin-1-yl)pyrrolidin-1-yl)but-2-yn-1-one]
20 | > 50 |  | C=CC(=O)Nc1cccc(-c2nc(-c3ccc(Oc4ncccc4C(F)(F)F)cc3)n3c(N)nccc23)c1 [C220, N-(3-(5-amino-3-(4-((3-(trifluoromethyl)pyridin-2-yl)oxy)phenyl)imidazo[1,5-c]pyrimidin-1-yl)phenyl)acrylamide]
21 | > 50 | < 100 | C=CC(=O)Nc1cccc(-c2cc(-c3ccc(Oc4cccnc4)cc3)cc3cncnc23)c1 [C117, N-(3-(6-(4-(pyridin-3-yloxy)phenyl)quinazolin-8-yl)phenyl)acrylamide]
22 | > 50 |  | C=CC(=O)Nc1cccc(-c2cc(-c3ccc(C(=O)Nc4cc(C5CC5)ccn4)cc3F)c(N)c3cncnc23)c1 [C202, 4-(8-(3-acrylamidophenyl)-5-aminoquinazolin-6-yl)-N-(4-cyclopropylpyridin-2-yl)-3-fluorobenzamide]
23 | < 50 |  | C=CC(=O)Nc1cccc(-c2cc(-c3ccc(C(=O)Nc4ccccn4)cc3F)cc3cncnc23)c1 [C087, 4-(8-(3-Acrylamidophenyl)quinazolin-6-yl)-3-fluoro-N-(pyridin-2-yl)benzamide]
24 | < 50 |  | C=CC(=O)Nc1cccc(-c2cc(-c3ccc(C(=O)Nc4cc(C(F)(F)F)ccn4)c(OC)c3)cc3cncnc23)c1 [C145, 4-(8-(3-acrylamidophenyl)quinazolin-6-yl)-2-methoxy-N-(4-(trifluoromethyl)pyridin-2-yl)benzamide]
25 | > 50 | < 100 | C=CC(=O)Nc1cccc(-c2cc(-c3cncc(Cl)c3)cc3cnc(N)nc23)c1 [C103, N-(3-(2-amino-6-(5-chloropyridin-3-yl)quinazolin-8-yl)phenyl)acrylamide]
